The structures appear in SMILES notation.

A short description of this data set: gradient 5% acetonitrile 3 min, to 50% in 2 min, to 85% in 15 min, held 3 min, 100 µL/min. To be noted: column: Zorbax Extend-C18 2.1 x 50 mm; eluents: water / acetonitrile, 0.1% formic acid. Put shortly:
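Mixtures of ~100 pure standards were chromatographed on a Zorbax Extend-C18 column (2.1 × 50 mm, 1.8 μm) at 100 μL/min using water and acetonitrile, each with 0.1% formic acid. Detection used a quadrupole time-of-flight mass spectrometer in positive and negative ionization mode, and data collection spanned 3 months. Retention time was obtained from adduct peaks picked computationally and each checked manually.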
The compound `O=C(NCc1cccc(F)c1)N1CCC(n2c(-c3ccco3)nc3cccnc32)C1` (centres undefined) had an RP-LC retention time of 774 s. To `O=C(Nc1ccc2c(c1)OCCO2)C1CCCN(c2ncnc3c2nc2n3CCCCC2)C1` (centres undefined) belongs 750 s; to `CCOC(=O)c1ccc(NC(=O)CSc2nnc(-c3cccn(CC)c3=O)n2C)cc1`, 794 s. To `O=C(c1ccsc1)N1CCN(c2cc(-c3ccccc3)[nH]n2)CC1` belongs 730 s.

The compound `O=C(NCCc1ccccc1)C1CCCN(c2ncnc3c2nc2n3CCCCC2)C1` (centres undefined) gave an RP-LC retention time of 758 s. Compound `Cc1cccc(NC(=O)CSc2nnc(NC(=O)CN(C)S(C)(=O)=O)s2)c1C` yielded an RP-LC retention time of 618 s.

`Cc1ccsc1C(=O)NCc1ccc2c(c1)ncn2C(C)C` displayed an RP-LC retention time of 616 s. To `COc1ccc(NC(=O)Cn2nc3nc(N4CCCC4)ccn3c2=O)cc1Cl` belongs 676 s. To `Cc1noc(-c2ccnc(-n3cnc(C(=O)NCc4ccc(Cl)cc4)c3)c2)n1` belongs 903 s; to `CC(C)N1C(=O)C(C)N(C(=O)NCCN(C)C)c2cccnc21` (centres undefined), 565 s. Then `Cc1ccc(NC(=O)c2c(C)oc3nc(C)nc(N4CCOCC4)c23)c(C)c1`, with 849 s; and `Cc1ccc(CN2C(=O)C3(CCOCC3)CC2c2nnnn2C(C)(C)C)cc1` (centres undefined), with 783 s; and `O=C(c1ccc2c(c1)OCO2)N1CCCn2nc(-c3cccs3)cc2C1`, with 796 s.

For the compound `CCn1cc(CN2CCC(C(=O)NC3CCCc4ccccc43)CC2)c2cc(OC)ccc21` (centres undefined), the RP-LC retention time is 760 s.

For `Cc1c(Cl)cccc1NC(=O)C(=O)NCC1(c2ccc(F)cc2)CC1`, the RP-LC retention time was determined as 1110 s. `Cc1cc(=O)n(CC(=O)Nc2ccc(F)cc2)c(-c2ccc(Cl)cc2)n1` had an RP-LC retention time of 1120 s.

Compound `CCOC(=O)C1CCN(C(=O)C2CCCN(c3nc4ccccc4[nH]3)C2)CC1` (centres undefined) registered an RP-LC retention time of 646 s. Then `Cc1cc(C)c(S(=O)(=O)N2CCc3c(c(-c4nnc(-c5ccc(F)cc5)o4)nn3C)C2)cc1C`, with 1090 s. To `CCC(CC)C(=O)N1CCC(Oc2nccnc2N(C)C)C1` (centres undefined) belongs 749 s; to `COCCN1CCC2(CC1)CN(Cc1cccc(F)c1)Cc1ccccc1O2`, 629 s. Then `CCn1c(=O)c2c(nc3n2CC(C)CN3C2CCCCC2)n(C)c1=O` (centres undefined), with 828 s; and `Cc1noc(-c2nn(C)c3c2CN(C(=O)CC2CCCC2)CC3)n1`, with 759 s. `COC(=O)c1ccc(NC(=O)C(=O)NC(C)Cc2cccs2)cc1` (centres undefined) showed an RP-LC retention time of 900 s. With `Cc1nc(C)c(C(=O)Nc2ccccc2NC(=O)c2ccccn2)s1`, the RP-LC retention time is 691 s. In turn, `O=C(Nc1cccc(Cl)c1)C1CCCN(S(=O)(=O)Cc2ccccc2)C1` (centres undefined) came in with an RP-LC retention time of 1030 s.

`O=C(Nc1ccc2c(c1)N(C(=O)c1cccs1)CC2)c1ccc2c(c1)OCO2`: the RP-LC retention time was 843 s. Then `O=C(Cn1c(=O)c2cccn2c2ccc(F)cc21)NCC1CCCO1` (centres undefined), with 703 s. To `CCCNc1cc(N2CCC(CCC(=O)N3CCN(c4ccccn4)CC3)CC2)ncn1` belongs 570 s; to `O=C(NC1CCN(Cc2ccccc2)CC1)c1nnc(-c2ccc(S(=O)(=O)N3CCCC3)cc2)o1`, 1190 s. To `Cc1csc(-c2csc(S(=O)(=O)N3CCCCCC3)c2)n1` belongs 1090 s.

`CC(NC(=O)CCCn1c2ccccc2c2cnn(C)c(=O)c21)c1ccc2c(c1)OCCO2` (centres undefined) returned an RP-LC retention time of 842 s. Then `O=c1c2c(CO)c(-c3ccccc3)nn2ccn1Cc1ccccc1F`, with 902 s; and `O=C(CSc1ccc(F)cc1)N1CCCC(c2nnc(-c3ccc4c(c3)OCO4)o2)C1` (centres undefined), with 810 s; and `COCCSc1nc(-c2cccs2)cc(C(F)(F)F)c1C#N`, with 1120 s.

For the compound `COc1ccc(-c2cc3c4nnc(CCC(=O)N5CCC(C(N)=O)CC5)n4ccn3n2)cc1`, the RP-LC retention time stood at 613 s. To `Cc1cc(OCC(=O)Nc2ccccc2C#N)nc(-c2ccc(F)cc2)n1` belongs 964 s; to `CCc1nn2c(CNC(=O)c3cccs3)c(-c3ccccc3)nc2s1`, 866 s; to `CCN1CCN(CCNC(=O)C2CCN(c3nc4cccnc4s3)CC2)CC1`, 559 s. Then `Cc1ccc(-c2nc(C3CC(=O)N(c4ccc(F)c(Cl)c4)C3)no2)cc1` (centres undefined), with 1160 s.

Compound `Cc1cc(NC(=O)c2ccccc2Br)nc2c1c(=O)oc1ccccc12` had an RP-LC retention time of 1010 s. To `O=S(=O)(Nc1cc(-c2ccoc2)no1)c1ccc2c(c1)CCC2` belongs 921 s; to `O=C(NC1CCCCC1)c1nc(Nc2ccccc2)c2ccccc2n1`, 861 s; to `O=C1CCCc2cc(S(=O)(=O)N3CCC(C(=O)NCCc4ccc(Cl)cc4)CC3)ccc2N1`, 776 s. Then `O=C(Nc1cccc(C(F)(F)F)c1)c1cc2ncc(Br)cn2n1`, with 982 s. Then `CN1CCn2cc(S(=O)(=O)Nc3ccc(F)cc3)cc2C1=O`, with 678 s; and `CCOC(=O)c1[nH]c(C)c(CCC(=O)N2CCC(C(=O)NCCCN3CCCC3=O)CC2)c1C`, with 626 s; and `CCOC(=O)c1c(CN2CCOCC2)n(C)c2cc(-c3cccnc3)c3c(c12)CN(C)CO3`, with 784 s. `CCn1cc2c3c(cccc31)CN(C(=O)Nc1cc(C)cc(C)c1)CC2` returned an RP-LC retention time of 1070 s. Then `O=C(NCCn1c(=O)n(Cc2ccc(F)cc2)c2cccnc21)c1ccc2c(c1)OCO2`, with 778 s. Then `CC1Oc2ccccc2N(Cc2nc(-c3cccc(Br)c3)no2)C1=O` (centres undefined), with 1200 s; and `COc1cc(OC)c(NC(=O)C2=C(C)C(=O)OC23CCN(C(C)=O)CC3)cc1Cl`, with 730 s. To `O=C(CS(=O)(=O)Cc1ccccc1)Nc1nc(-c2ccccc2)cs1` belongs 956 s; to `CCC(=O)N1CCc2c(C(=O)N3CCN(c4ccccc4Cl)CC3)cccc21`, 960 s. The compound `Cc1ccc(OCC(=O)N2C[C@@H]3C[C@H]2C[C@@H]3NS(=O)(=O)c2ccccc2)cc1` yielded an RP-LC retention time of 764 s.

In turn, `CCc1ccc(S(=O)(=O)N2CCC(n3c(-c4ccco4)nc4cccnc43)C2)cc1` (centres undefined) returned an RP-LC retention time of 972 s. To `CCCn1cc(C(=O)NCCN2CCCC2)c2cccnc21` belongs 589 s; to `COc1ccc(S(=O)(=O)N2CCCC(C(=O)N3CCN(Cc4ccccc4)CC3)C2)cc1Cl` (centres undefined), 707 s; to `CCOc1ccc(NC(=O)N2CCc3cn(C)c4cccc(c34)C2)cc1`, 913 s. Then `CCOC(=O)c1ccccc1NC(=O)C1=Cc2ccccc2OC=C1`, with 1410 s; and `CCCNC(=O)CC1Sc2ncccc2N(CC)C1=O` (centres undefined), with 642 s; and `CCc1nnc(-c2coc(S(=O)(=O)N3CCC(N4CCCCC4)CC3)c2)o1`, with 607 s. With `CN(C)C(=O)c1ccc2c(c1)nc(CN(C)C(=O)Nc1ccc(Br)cc1F)n2C`, the RP-LC retention time was 637 s. Then `CCc1cccc(C)c1Nc1c(-c2ccc(O)c(OC)c2)nc2ncccn12`, with 686 s; and `O=C(NCc1ccccc1)C1CCCN(S(=O)(=O)c2cc(-c3noc(C4CCC4)n3)cs2)C1` (centres undefined), with 1080 s.

Regarding `CCNc1cc(N2CCCC(CCC(=O)Nc3ccc4c(c3)OCCO4)C2)ncn1` (centres undefined), the RP-LC retention time came out at 674 s. To `COc1ccc(S(=O)(=O)N2CCCC(C(=O)Nc3ccc4c(c3)OCCO4)C2)cc1Cl` (centres undefined) belongs 938 s; to `Cc1ccc2c(C(=O)NCc3ccccc3Cl)cc(NC(=O)C(C)C)cc2n1`, 674 s. To `COCCn1c(C)cc(O)c(C(c2ccc(OC)cc2)N2CCC(C)CC2)c1=O` (centres undefined) belongs 845 s; to `CCN(C(=O)C1CCCN1S(=O)(=O)c1cc2c(cc1C)NC(=O)CO2)c1cccc(C)c1` (centres undefined), 818 s; to `O=C(NC1CCCCCCC1)C1CCN(C(=O)c2cc(-c3ccncc3)n[nH]2)CC1`, 648 s. To `CCOc1ccc(NC(=O)CN2C(=O)c3ccccc3C2=O)c([N+](=O)[O-])c1` belongs 839 s; to `CC(C)NC(=O)C1CCCN(c2nc3ncn(CC(=O)NCc4ccccc4)c(=O)c3s2)C1` (centres undefined), 672 s; to `CC(C)(C)OC(=O)COC(=O)c1cn(-c2ccc(F)cc2)c(=O)c2ccccc12`, 1140 s.

In turn, `COc1ccc(Cc2nc(Cn3ccnc3)no2)cc1OC` registered an RP-LC retention time of 592 s. `COc1cc(OC)c(NC(=O)N2CCc3nc(-c4ccc(F)cc4)ncc3C2)cc1Cl` yielded an RP-LC retention time of 1020 s.

Compound `CCOc1ccc(-c2[nH]ncc2CNS(=O)(=O)Cc2ccc(C)c(C)c2)cc1` showed an RP-LC retention time of 896 s. To `Cc1nc(NCCNC(=O)c2cccc(C(F)(F)F)c2)cc(N2CCOCC2)n1` belongs 588 s; to `CCc1noc(NC(C)=O)c1-c1ccc(OC)c(S(=O)(=O)NCc2ccccc2OC)c1`, 791 s; to `Cc1noc(C)c1CC(=O)NCc1cccnc1Oc1ccccc1`, 734 s.

(Values after the METLIN SMRT retention time set (Domingo-Almenara et al. 2019).)
